tested on: Porcine ovarian granulosa cells (POGC); assay: Test Example 1: inhibition of SNP-induced apoptosis of porcine ovarian granulosa cells; format: cell-based; conditions: Sus scrofa; for complete inhibition of apoptosis; SNP 0.5 mM; cells observed after 48 hours; read-out: Minimum effective concentration
Excerpt: Porcine ovarian granulosa cells (POGC) were isolated from porcine ovaries and cultured following to a known method (Endocrinology, Vol. 136, p. 3470, 1995). Namely, porcine ovaries were rinsed with PBS buffer, and POGC were collected by aspiration from antral follicles with a syringe. Cell fraction was recovered as a precipitate by centrifugation of the suspension. The operation of suspending the cell fraction into PBS buffer and subjecting the resulting suspension to centrifugation was repeated three times to wash the cells. The POGC obtained as a precipitate were suspended again into a culture medium (DMEM containing 10% fetal bovine serum) and cell clumps were disrupted by pipetting. The cell suspension was passed through a mesh to remove contaminating tissue fragments, and then pipetted in 24-well plates for cell culture. The cell suspension was cultured for 2 days in a CO2 incubator according to a conventional procedure (37°C, 5% CO2). Then, the medium was refreshed to remove floating cells and the culture was continued for further 2 to 3 days until the cells reached subconfluency (0.7 to 2 × 10^5 cell/well). After the attaching cells were washed with serum-free medium, they were cultured in a serum-free DMEM (containing 5 µg/mL of transferrin, and 40 ng/mL of hydrocortisone, 4 mg/mL of bovine serum albumin (BSA), 100 nM androstendione).
The cell death was also confirmed by MTT assay. […] The results are shown in Table 1 where a minimum effective concentration of each compound for complete inhibition of apoptosis is described.

Row | SMILES | minimal effective concentration [µM]
1 | Cc1ccc2[nH]cc(C3=C(Br)C(=O)N(C)C3=O)c2c1 [Compound 3] | 3
2 | CN1C(=O)C(Br)=C(c2cn(C(=O)OC(C)(C)C)c3ccccc23)C1=O [Compound 2] | 10
3 | CN1C(=O)C(Br)=C(c2c[nH]c3ccc(Cl)cc23)C1=O [Compound 5] | 15
4 | CN1C(=O)C(Br)=C(c2cn(C(=O)OC(C)(C)C)c3ccc(Cl)cc23)C1=O [Compound 8] | 7
5 | Cc1cccc2c(C3=C(Br)C(=O)N(C)C3=O)c[nH]c12 [Compound 4] | 10
6 | Cc1cccc2c(C3=C(Br)C(=O)N(C)C3=O)cn(C(=O)OC(C)(C)C)c12 [Compound 7] | 7
7 | Cc1ccc2c(c1)c(C1=C(Br)C(=O)N(C)C1=O)cn2C(=O)OC(C)(C)C [Compound 6] | 3

same assay, conditions: Sus scrofa; for complete inhibition of apoptosis; SNP 0.5 mM; judged at 18 hours after SNP treatment; read-out: Minimum effective concentration

Row | SMILES | minimal effective concentration [µM]
8 | CN1C(=O)C(Br)=C(c2cn(C)c3ccccc23)C1=O [Compound 9, 2-bromo-3-(1-methyl-1H-indol-3-yl)-N-methylmaleimide] | 15
9 | CN1C(=O)C(Br)=C(c2c[nH]c3ccccc23)C1=O [Compound 1, 2-bromo-3-(1H-indol-3-yl)-N-methylmaleimide] | 15

same assay, conditions: Sus scrofa; for complete inhibition of apoptosis; SNP 0.5 mM; judged at 35 hours after SNP treatment; read-out: Minimum effective concentration

Row | SMILES | minimal effective concentration [µM]
10 | CCCCCCCn1cc(C2=C(Br)C(=O)N(C)C2=O)c2ccccc21 [Compound 10] | 3

tested on: 4B2 cells; assay: Test Example 9: SNP-induced apoptosis of 4B2 granulosa cell line; format: cell-based; conditions: Mus musculus; 10 µM added prior to SNP (0.5 mM); observation after 24 hours; read-out: cells alive
Experimental: Mouse granulosa cells were transfected with SV40 T antigen and cDNA of steroidogenic factor-1 (SF-1/Ad4BP) to establish a cell line, named 4B2. The cell secretes progesterone in response to protein kinase-A. The 4B2 cells were cultured in 48-well culture plates until subconfluency in DMEM containing 10% fetal bovine serum in a CO2 incubator according to a conventional manner. After the medium was switched to DMEM containing 2% fetal bovine serum, SNP (0.5 mM) was added thereto. […] Then, prior to the addition of SNP, Test Compound 13, 14, 17, 20, 24 or 25 (10 µM each) was added to the present medium and observations on cells were made after 24 hours.

Row | SMILES | viability at 10 µM [%]
11 | CN1C(=O)C(c2c[nH]c3ccccc23)=C(c2c[nH]c3ccc(Cl)cc23)C1=O [Compound 24] | > 95
12 | O=C1NC(=O)C(c2c[nH]c3ccccc23)=C1c1c[nH]c2ccccc12 [Compound 13] | > 95
13 | NCCCn1cc(C2=C(c3c[nH]c4ccccc34)C(=O)NC2=O)c2ccccc21 [Compound 17] | > 95

tested on: Porcine Ovarian Granulosa Cells; assay: Test Example 7: inhibition of SNP-induced apoptosis of undifferentiated POGC; format: cell-based; conditions: Sus scrofa; for complete inhibition of apoptosis; SNP 0.5 mM; cells observed after 48 hours; read-out: Minimum effective concentration

Row | SMILES | minimal effective concentration [µM]
14 | CN1C(=O)C(c2c[nH]c3ccccc23)=C(c2cn(C(=O)OC(C)(C)C)c3ccccc23)C1=O [Compound 22] | 5
15 | CCCN1C(=O)C(c2c[nH]c3ccccc23)=C(c2c[nH]c3ccccc23)C1=O [Compound 15] | 3
16 | CN1C(=O)C(c2cn(C(=O)OC(C)(C)C)c3ccccc23)=C(c2cn(C(=O)OC(C)(C)C)c3ccccc23)C1=O [Compound 23] | 5
17 | CN1C(=O)C(c2c[nH]c3ccccc23)=C(c2c[nH]c3ccccc23)C1O (stereo not shown) [Compound 16] | 5
18 | N=C(N)SCCCn1cc(C2=C(c3c[nH]c4ccccc34)C(=O)NC2=O)c2ccccc21 [Compound 27] | 1
19 | CN1C(=O)C(c2c[nH]c3ccccc23)=C(c2cn(CCCNC(=O)c3ccccc3)c3ccccc23)C1=O [Compound 21] | 7
20 | O=C1C(c2c[nH]c3ccccc23)=C(c2c[nH]c3ccccc23)C(=O)N1O [Compound 12] | 15
21 | CN1C(=O)C(c2c[nH]c3ccccc23)=C(c2c[nH]c3ccc(Cl)cc23)C1=O [Compound 24] | 3
22 | CN1C(=O)C(c2c[nH]c3ccccc23)C(c2c[nH]c3ccccc23)C1=O (stereo not shown) [Compound 30] | 10
23 | Cn1cc(C2=C(c3cn(CCCN)c4ccccc34)C(=O)NC2=O)c2ccccc21 [Compound 26] | 1
24 | O=C1NC(=O)C(c2c[nH]c3ccccc23)=C1c1c[nH]c2ccccc12 [Compound 13] | 5

same assay, conditions: Sus scrofa; for complete inhibition of apoptosis; SNP 0.5 mM; judged at 18 hours after SNP treatment; read-out: Minimum effective concentration

Row | SMILES | minimal effective concentration [µM]
25 | COc1ccc2[nH]cc(C3=C(c4c[nH]c5ccc(OC)cc45)C(=O)N(C)C3=O)c2c1 [Compound 44] | 1
26 | COc1cccc2[nH]cc(C3=C(c4c[nH]c5cccc(OC)c45)C(=O)N(C)C3=O)c12 [Compound 45] | 3
27 | CN1C(=O)C(c2c[nH]c3ccccc23)=C(c2cn(C)c3ccccc23)C1=O [Compound 35] | 10
28 | Cc1ccc2[nH]cc(C3=C(c4c[nH]c5ccc(C)cc45)C(=O)N(C)C3=O)c2c1 [Compound 40] | 1
29 | O=C1C(c2c[nH]c3ccccc23)=C(c2c[nH]c3ccccc23)C(=O)N1Cc1ccccc1 [Compound 49] | 1
30 | CN(C)CCCn1cc(C2=C(c3cn(CCCN(C)C)c4ccccc34)C(=O)N(C)C2=O)c2ccccc21 [Compound 37] | 10
31 | CN1C(=O)C(c2cn(C)c3ccccc23)=C(c2cn(C)c3ccccc23)C1=O [Compound 36] | 10
32 | Cc1ccc2c(C3=C(c4c[nH]c5cc(C)ccc45)C(=O)N(C)C3=O)c[nH]c2c1 [Compound 38] | 0.3
33 | CN1C(=O)C(c2c[nH]c3ccccc23)C(c2cn(CCCN)c3ccccc23)C1=O (stereo not shown) [Compound 33] | 10
34 | CN1C(=O)C(c2c[nH]c3ccc(F)cc23)=C(c2c[nH]c3ccc(F)cc23)C1=O [Compound 41] | 10
35 | c1ccc(N2CC(c3c[nH]c4ccccc34)C(c3c[nH]c4ccccc34)C2)cc1 (stereo not shown) [Compound 34] | 0.3
36 | CN1C(=O)C(c2c[nH]c3ccccc23)=C(c2c[nH]c3ccc(Cl)cc23)C1=O [Compound 43] | 3
37 | Cc1[nH]c2ccccc2c1C1=C(c2c(C)[nH]c3ccccc23)C(=O)N(C)C1=O [Compound 47] | 10
38 | Cc1[nH]c2ccccc2c1C1=C(c2c[nH]c3ccccc23)C(=O)N(C)C1=O [Compound 46] | 10
39 | CN(C)CC1CCn2c(c(C3=C(c4cn(C)c5ccccc45)C(=O)NC3=O)c3ccccc32)C1 (stereo not shown) [Compound 29] | 1
40 | Cc1cccc2c(C3=C(c4c[nH]c5ccccc45)C(=O)N(C)C3=O)c[nH]c12 [Compound 39] | 3
41 | CN1CCCC1CCn1cc(C2=C(c3c[nH]c4ccccc34)C(=O)NC2=O)c2ccccc21 (stereo not shown) [Compound 28] | 3
42 | O=C1C(c2c[nH]c3ccccc23)=C(c2c[nH]c3ccccc23)C(=O)N1c1ccccc1 [Compound 48] | 1
43 | CN1C(=O)C(c2c[nH]c3ccc(Br)cc23)=C(c2c[nH]c3ccc(Br)cc23)C1=O [Compound 42] | 1

same assay, conditions: Sus scrofa; for complete inhibition of apoptosis; SNP 0.5 mM; judged at 30 hours after SNP treatment; read-out: Minimum effective concentration

Row | SMILES | minimal effective concentration [µM]
44 | O=C1OC(=O)C(c2c[nH]c3ccccc23)=C1c1c[nH]c2ccccc12 [Compound 11] | 10
45 | CCN(CC)c1ccc2c(-c3ccc(S(=O)(=O)NCCCn4cc(C5=C(c6cn(C)c7ccccc67)C(=O)NC5=O)c5ccccc54)cc3S(=O)(=O)[O-])c3ccc(=[N+](CC)CC)cc-3oc2c1 [Compound 31] | 3
46 | NCCCn1cc(C2=C(c3c[nH]c4ccccc34)C(=O)NC2=O)c2ccccc21 [Compound 17] | 3

— patent publication EP1057484A1, “CELL DEATH INHIBITORS” (priority 1998, dated 1999)
